The values below come from patent publication US20060199841A1, “Pharmaceutical combination for the treatment of spasticity and/or pain” (priority 2003, published 2006).

Read-outs that look alike come from different tables or passages of the source.

In data set [1] the test system is GYKI 20039 induced tremor. The data set is described as follows: Tremor test in mice (GYKI 20039 induced tremor). The data set is classed as in vivo. The conditions noted are these: for Tremor inhibitory effect ED50: i.p.; for ED50: Mus musculus, ip. The source says: Tremor can be induced by administration of GYKI 20039 (3-(2,6-dichlorophenyl)-2-iminothiazolidine). The method was published by Kocsis P., Tarnawa I., Kovács Gy., Szombathelyi Zs., Farkas S., 2002; Acta Pharmaceut. Hung., 72:49-61; U.S. Pat. No. 5,340,823, 1994, U.S. Pat. No. 5,198,446, JP 1992270293, EP 0468825, 1990 HU 4647.
The aim of our experiments was to decide if the effect of tolperisone is influenced by co-administration of dextromethorphan.

Data set [2] has as its system monosynaptic reflex, hemisected spinal cord preparation. Put plainly: Spinal reflex inhibitory action in vitro, hemisected spinal cord preparation. Here is the method: Spinal reflex Inhibitory Action, In Vitro
Our experiments were performed according to the methods described by Otsuka and Konishi (Otsuka and Konishi, Nature 1974. 252, 733.), with slight modifications (Kocsis et al., Brain Res. Bull. 2003. 60, 81.).
This experiment is suitable for testing central muscle relaxant activity. In the tremor test the efficacy of drugs may be considerably influenced by metabolic and pharmacokinetic factors, therefore we used an in vitro model to investigate the pharmacodynamic interaction between the components of the combination without the interference of the above factors.
We determined the dose-response curve for monosynaptic reflex inhibition of dextromethorphan alone, and in the presence of tolperisone or eperisone. In the control study we measured the effect of dextromethorphan at 0.25; 0.5 and 1 μM. In other experiments we added tolperisone (25 μM) or eperisone (20 μM) to the perfusion solution, and taking the equilibrium responses in these conditions as references, we measured the reflex inhibitory action of dextromethorphan. […] The potentiating effect of eperisone has been even more expressed (see Table 4.).

Data set [3] deals with neuropathic pain (allodynia). The data set is described as follows: Rat allodynia model (Bennet-Xie model, von Frey filaments). The conditions noted are these: for analgesic effect in the allodynia model (in words): i.p., dextromethorphan 10 mg/kg alone or in combined treatment with tolperisone. The format is in vivo. From the text:
In our experiments, we applied the Bennet-Xie model (G. J. Bennett, Y.-K. Xie, Pain 33: 87-107; 1988) to test the effect of the combination against neuropathic pain. We measured the threshold of the pain reaction with von Frey filaments calibrated to 0.9, 1.2, 1.8, 3.6, 5.4, 6.9, 8.9, 12 and 20 g.

For data set [4] the following is noted: in humans; cited from earlier work.
For a further data set, the system named is pain. The conditions noted are these: cited from earlier work.
Setting [5] is: 15-minute pre-treatment, dose causing 50% tremor inhibition.
The mark [6] stands for this setting: 15-minute pre-treatment, dose causing 50% tremor inhibition, read-out: Tremor inhibitory effect ED50.

For `CCc1ccc(C(=O)C(C)CN2CCCCC2)cc1` (stereo not shown) [Eperisone, 2-mehyl-1-(4-ethylphenyl)-3-(1-piperidinyl)-1-propanone], in data set [1] (setting [5]), the “Tremor inhibitory effect ED50” value came out at 51.8 mg/kg.
Turning to `Cc1ccccc1OCC(O)CO` (stereo not shown) [Mephenesin], the ED50 in data set [1] (setting [6]) worked out at 81.5 mg/kg.
The same measure, in the same setting: with `Clc1ccc2nsnc2c1NC1=NCCN1` [Tizanidine] the figure was 0.73 mg/kg.
On to `Cc1ccccc1-n1c(CF)nc2ccc(N)cc2c1=O` [Afloqualon], for which the “Tremor inhibitory effect ED50” value in data set [1] (setting [5]) is given as 11.1 mg/kg.
Regarding `Cc1ccc(C(=O)C(C)CN2CCCCC2)cc1` (stereo not shown) [Tolperisone, 2-mehyl-1-(4-methylphenyl)-3-(1-piperidinyl)-1-propanone], the “Inhibition of tremor (control %) Mean” value in data set [1] (40 mg/kg tolperisone i.p.) is 27 control %; in data set [1] (60 mg/kg tolperisone i.p.), 48 control %. In addition, in data set [1] (setting [5]), the “Tremor inhibitory effect ED50” value amounted to 60.0 mg/kg. For the same molecule, the “Inhibition of tremor (%)” value in data set [1] (tolperisone 60 mg/kg i.p., dextromethorphan 0 mg/kg) came out at 48.3%. In addition, in data set [1] (tolperisone alone), the “ED50 for the tremor inhibitory activity” value came to 55.0 ± 7.2 mg/kg. For the same molecule, the “Reflex Inhibition (%)” value worked out at 26.97% in data set [2] (tolperisone 25 μM alone), 48.61% in data set [2] (tolperisone 50 μM alone) and 70.30% in data set [2] (tolperisone 100 μM alone). In addition, the IC50 in data set [2] (tolperisone alone, sigmoid fitting, read-out: IC50 of tolperisone, reflex inhibitory activity) is 52.4 µM. Also, the “analgesic effect in the allodynia model (in words)” value in data set [3] is listed as “significant analgesic effect”. Further, the “Threshold value (g) mean” value in data set [3] (tolperisone 20 mg/kg i.p., time 0 min) is listed as 3.6 g; in data set [3] (tolperisone 20 mg/kg i.p., time 10 min) it was 14.89 g; in data set [3] (tolperisone 20 mg/kg i.p., time 20 min), 10.31 g. The oral bioavailability in data set [4] is listed as 16-20%.
Take `COc1ccc2c(c1)[C@]13CCCC[C@@H]1[C@H](C2)N(C)CC3` (racemic) [Dextromethorphan, (+/−)-3-methoxi-17-methylmorphinan]: the “Inhibition of tremor (control %) Mean” value in data set [1] (10 mg/kg dextromethorphan i.p.) is recorded as 8 control %. Moreover, the “tremor inhibition (in words)” value in data set [1] (10 mg/kg dextromethorphan, 10-minute pre-treatment) was “no significant tremor inhibition”. The ED50 in data set [1] (read-out: ED50 of inhibition of the tremor) was determined as 24.4 mg/kg. In addition, in data set [2] (dextromethorphan 0.25 μM alone), the inhibition at 0.25 µM came to 20.7%. In addition, the inhibition at 0.5 µM in data set [2] (dextromethorphan 0.5 μM alone) worked out at 36.6%. Moreover, in data set [2] (dextromethorphan 1 μM alone), the inhibition at 1 µM was 40.9%. Further, the IC50 in data set [2] (dextromethorphan alone, read-out: IC50 of dextromethorphan, reflex inhibitory activity) is 1.56 µM. Also, the “Threshold value (g) mean” value is recorded as 3.26 g in data set [3] (dextromethorphan 10 mg/kg i.p., time 0 min); 7.57 g in data set [3] (dextromethorphan 10 mg/kg i.p., time 10 min); 6.03 g in data set [3] (dextromethorphan 10 mg/kg i.p., time 20 min). For the same molecule, the “analgesic effect in the allodynia model (in words)” value in data set [3] is “practically ineffective”. Further, the “effect in the treatment of chronic pain” value with pain (clinical trials, Ben-Abraham and Weinbroum 2000) was “ineffective”. Also, the “effect in an experimental human pain model” value in the data set with pain (clinically acceptable dose range, Kaippula et al. 1995) is on record as “no effect”. The “relieving acute ischemic pain” value in the data set on pain (in humans, Plesan et al. 2000) is reported as “without effect”.
`CC12CC3CC(C)(C1)CC(N)(C3)C2` [Memantine]: the ED50 in data set [1] (setting [6]) was found to be 20.5 mg/kg.
As for `NCC(CC(=O)O)c1ccc(Cl)cc1` (stereo not shown) [Baclofen], the ED50 in data set [1] (setting [6]) was 9.1 mg/kg.
